Data as given in patent US6737383B1, “Herbicidal oxadiazolidines” (priority 1999, dated 2004).

Experiments:
[1] = test system: blackgrass; experiment: Test B pre/postemergence blackgrass; format: in vivo, Alopecurus myosuroides
Method in brief: (§1)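 Test chemicals in a non-phytotoxic solvent mixture with surfactant were sprayed preemergence onto planted seeds and postemergence onto plants 2 to 18 cm tall (1- to 4-leaf stage). After twelve to sixteen days in a greenhouse, injury was visually rated against untreated controls from 0 (no effect) to 10 (complete control).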

[2] = test system: rice; experiment: Test B flood test rice; format: in vivo, Oryza sativa
Method in brief: (§2)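 Each value is a visual injury score relative to controls, with 10 meaning complete control and 0 no effect. Evaluation took place twelve to sixteen days after the 2-leaf-stage plants were treated and kept in the greenhouse.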

[3] = test system: wheat; experiment: Test B pre/postemergence wheat; format: in vivo, Triticum aestivum
Method in brief: as §1

[4] = test system: purple nutsedge; experiment: Test B pre/postemergence purple nutsedge; format: in vivo, Cyperus rotundus
Method in brief: as §1

[5] = test system: soybean; experiment: Test B pre/postemergence soybean; format: in vivo, Glycine max
Method in brief: as §1

[6] = test system: crabgrass; experiment: Test B pre/postemergence crabgrass; format: in vivo, Digitaria sanguinalis
Method in brief: as §1

[7] = test system: sugar beet; experiment: Test B pre/postemergence sugar beet; format: in vivo, Beta vulgaris
Method in brief: as §1

[8] = test system: duck salad; experiment: Test B flood test duck salad; format: in vivo, Heteranthera limosa
Method in brief: as §2

[9] = test system: bedstraw; experiment: Test B pre/postemergence bedstraw; format: in vivo, Galium aparine
Method in brief: as §1

[10] = test system: corn; experiment: Test B pre/postemergence corn; format: in vivo, Zea mays
Method in brief: as §1

[11] = test system: pigweed; experiment: Test B pre/postemergence pigweed; format: in vivo, Amaranthus retroflexus
Method in brief: as §1

[12] = test system: rape; experiment: Test B pre/postemergence rape; format: in vivo, Brassica napus
Method in brief: as §1

[13] = test system: velvetleaf; experiment: Test B pre/postemergence velvetleaf; format: in vivo, Abutilon theophrasti
Method in brief: as §1

[14] = test system: surinam grass; experiment: Test B pre/postemergence surinam grass; format: in vivo, Brachiaria decumbens
Method in brief: as §1

[15] = test system: wild oat; experiment: Test B pre/postemergence wild oat; format: in vivo, Avena fatua
Method in brief: as §1

[16] = test system: smallflower flatsedge; experiment: Test B flood test smallflower flatsedge; format: in vivo, Cyperus difformis
Method in brief: as §2

[17] = Preemergence, Rate 31 g/ha, visual rating, scale 0 to 10 (0 no effect, 10 complete control)
[18] = Preemergence, Rate 62 g/ha, scale of 0 to 10 where 0 is no effect and 10 is complete control
[19] = Preemergence, Rate 250 g/ha, scale of 0 to 10 where 0 is no effect and 10 is complete control
[20] = Rate 31 g/ha, Postemergence, scale 0 to 10
[21] = Rate 62 g/ha, Postemergence, scale of 0 to 10 where 0 is no effect and 10 is complete control
[22] = Rate 125 g/ha, Postemergence, scale 0 to 10
[23] = Rate 125 g/ha, Preemergence, scale of 0 to 10 where 0 is no effect and 10 is complete control
[24] = Rate 62 g/ha, headed Pre-emergence (flood test species), scale 0 to 10 (0 no effect, 10 complete control)
[25] = Rate 250 g/ha, Pre-emergence, flood-test species, scale 0 to 10, 0 is no effect, 10 is complete control

CC(C)N(C(=O)n1oc(=O)n(CC#C[Si](C)(C)C)c1=O)c1ccc(F)cc1 [Compound 213]
Blackgrass plant response rating [1, 17]: 0 | Blackgrass plant response rating [1, 18]: 0 | Blackgrass plant response rating [1, 19]: 0 | Blackgrass plant response rating [1, 20]: 0 | Blackgrass plant response rating [1, 21]: 0 | Blackgrass plant response rating [1, 22]: 0 | Blackgrass plant response rating [1, 23]: 0 | Plant response rating (0 to 10; 0 is no effect, 10 is complete control), Blackgrass ([1]; Rate 250 g/ha, Postemergence): 2 | Rice plant response rating [2, 24]: 0 | Rice plant response rating [2, 25]: 0 | Wheat plant response rating [3, 17]: 0 | Wheat plant response rating [3, 18]: 0 | Wheat plant response rating [3, 19]: 0 | Wheat plant response rating [3, 21]: 0 | Wheat plant response rating [3, 22]: 0 | Wheat plant response rating [3, 23]: 0 | Plant response rating (0 to 10; 0 is no effect, 10 is complete control), Wheat ([3]; Rate 250 g/ha, Postemergence): 2 | Nutsedge plant response rating [4, 18]: 0 | Nutsedge plant response rating [4, 20]: 0 | Nutsedge plant response rating [4, 21]: 0 | Nutsedge plant response rating [4, 22]: 0 | Nutsedge plant response rating [4, 23]: 0 | Plant response rating (0 to 10; 0 is no effect, 10 is complete control), Nutsedge ([4]; Rate 250 g/ha, Postemergence): 0 | Soybean plant response rating [5, 17]: 0 | Soybean plant response rating [5, 18]: 0 | Soybean plant response rating [5, 19]: 0 | Soybean plant response rating [5, 21]: 1 | Soybean plant response rating [5, 22]: 1 | Soybean plant response rating [5, 23]: 0 | Plant response rating (0 to 10; 0 is no effect, 10 is complete control), Soybean ([5]; Rate 250 g/ha, Postemergence): 2 | Crabgrass plant response rating [6, 17]: 0 | Crabgrass plant response rating [6, 18]: 0 | Crabgrass plant response rating [6, 19]: 3 | Crabgrass plant response rating [6, 20]: 0 | Crabgrass plant response rating [6, 21]: 0 | Crabgrass plant response rating [6, 22]: 0 | Crabgrass plant response rating [6, 23]: 0 | Plant response rating (0 to 10; 0 is no effect, 10 is complete control), Crabgrass ([6]; Rate 250 g/ha, Postemergence): 2 | Sugarbeets plant response rating [7, 17]: 0 | Sugarbeets plant response rating [7, 18]: 0 | Sugarbeets plant response rating [7, 19]: 0 | Sugarbeets plant response rating [7, 21]: 3 | Sugarbeets plant response rating [7, 22]: 3 | Sugarbeets plant response rating [7, 23]: 0 | Plant response rating (0 to 10; 0 is no effect, 10 is complete control), Sugarbeets ([7]; Rate 250 g/ha, Postemergence): 4 | Ducksalad plant response rating [8, 24]: 0 | Ducksalad plant response rating [8, 25]: 0 | Bedstraw plant response rating [9, 17]: 0 | Bedstraw plant response rating [9, 18]: 0 | Bedstraw plant response rating [9, 19]: 0 | Bedstraw plant response rating [9, 20]: 0 | Bedstraw plant response rating [9, 21]: 0 | Bedstraw plant response rating [9, 22]: 3 | Bedstraw plant response rating [9, 23]: 0 | Plant response rating (0 to 10; 0 is no effect, 10 is complete control), Bedstraw ([9]; Rate 250 g/ha, Postemergence): 3 | Corn plant response rating [10, 17]: 0 | Corn plant response rating [10, 18]: 0 | Corn plant response rating [10, 19]: 0 | Corn plant response rating [10, 20]: 0 | Corn plant response rating [10, 21]: 0 | Corn plant response rating [10, 22]: 0 | Corn plant response rating [10, 23]: 0 | Plant response rating (0 to 10; 0 is no effect, 10 is complete control), Corn ([10]; Rate 250 g/ha, Postemergence): 0 | Redroot pigweed plant response rating [11, 17]: 0 | Redroot pigweed plant response rating [11, 18]: 0 | Redroot pigweed plant response rating [11, 19]: 5 | Redroot pigweed plant response rating [11, 20]: 0 | Redroot pigweed plant response rating [11, 21]: 5 | Redroot pigweed plant response rating [11, 22]: 7 | Redroot pigweed plant response rating [11, 23]: 4 | Plant response rating (0 to 10; 0 is no effect, 10 is complete control), Redroot pigweed ([11]; Rate 250 g/ha, Postemergence): 7 | Rape plant response rating [12, 17]: 0 | Rape plant response rating [12, 18]: 0 | Rape plant response rating [12, 19]: 0 | Rape plant response rating [12, 20]: 0 | Rape plant response rating [12, 21]: 0 | Rape plant response rating [12, 22]: 2 | Rape plant response rating [12, 23]: 0 | Plant response rating (0 to 10; 0 is no effect, 10 is complete control), Rape ([12]; Rate 250 g/ha, Postemergence): 3 | Velvetleaf plant response rating [13, 17]: 0 | Velvetleaf plant response rating [13, 18]: 0 | Velvetleaf plant response rating [13, 19]: 0 | Velvetleaf plant response rating [13, 21]: 0 | Velvetleaf plant response rating [13, 22]: 0 | Velvetleaf plant response rating [13, 23]: 0 | Plant response rating (0 to 10; 0 is no effect, 10 is complete control), Velvetleaf ([13]; Rate 250 g/ha, Postemergence): 0 | B. signalgrass plant response rating [14, 17]: 0 | B. signalgrass plant response rating [14, 18]: 0 | B. signalgrass plant response rating ([14]; Preemergence, Rate 250 g/ha, scale 0 to 10, 0 is no effect, 10 is complete control): 0 | B. signalgrass plant response rating [14, 20]: 0 | B. signalgrass plant response rating [14, 21]: 0 | B. signalgrass plant response rating ([14]; Rate 125 g/ha, Postemergence, scale 0 (no effect) to 10 (complete control)): 0 | B. signalgrass plant response rating [14, 23]: 0 | Plant response rating (0 to 10; 0 is no effect, 10 is complete control), B. signalgrass ([14]; Rate 250 g/ha, Postemergence): 2 | Wild oats plant response rating [15, 17]: 0 | Wild oats plant response rating [15, 18]: 0 | Wild oats plant response rating [15, 19]: 0 | Wild oats plant response rating [15, 21]: 0 | Wild oats plant response rating [15, 22]: 0 | Wild oats plant response rating [15, 23]: 0 | Plant response rating (0 to 10; 0 is no effect, 10 is complete control), Wild oats ([15]; Rate 250 g/ha, Postemergence): 2 | S. Flatsedge plant response rating [16, 24]: 0 | S. Flatsedge plant response rating [16, 25]: 0
